For 30 compounds, IC50 results are on record in ChEMBL document CHEMBL4616641, “4-Hydroxy-3-methylbenzofuran-2-carbohydrazones as novel LSD1 inhibitors” (Bioorg Med Chem Lett, 2020).

A value given as a limit tells only on which side of the number the result lay.

For one experiment, the system named is PC-3. Kind of experiment: Antiproliferative activity against human PC3 cells assessed as inhibition of cell growth.
For another experiment, the system named is MGC-803. As to the kind of experiment: Antiproliferative activity against human MGC803 cells assessed as inhibition of cell growth by MTT assay. On the technique in general: Tetrazolium assays rely on reduction of a dye to a coloured formazan, in cell work by metabolically active cells.
For the next experiment, the system named is PANC-1. As to the kind of experiment: Antiproliferative activity against human PANC1 cells assessed as inhibition of cell growth.
A further experiment concerns U-87 MG. As to the kind of experiment: Antiproliferative activity against human U87MG cells assessed as inhibition of cell growth.
The next experiment relates to HT-29. As to the kind of experiment: Antiproliferative activity against human HT-29 cells assessed as inhibition of cell growth.
The subject of another experiment is MCF7. Kind of experiment: Antiproliferative activity against human MCF7 cells assessed as inhibition of cell growth.

On to `Cc1c(C(=O)N/N=C\c2cccs2)oc2cccc(O)c12`, for which the concentration for half-maximal inhibition (IC50) in the experiment on PC-3 came out at 22.3 µM.
In the case of `Cc1c(C(=O)N/N=C\c2cc(Cl)ccc2O)oc2cccc(O)c12`, the IC50 in the experiment on PC-3 worked out at 3.12 µM; in the experiment with MGC-803, 4.16 µM.
Consider `Cc1ccc(O)c(/C=N\NC(=O)c2oc3cccc(O)c3c2C)c1`, for which the IC50 with PC-3 turned out to be 7.35 µM; with MGC-803, 5.99 µM.
`Cc1c(C(=O)N/N=C\c2cccc(F)c2)oc2cccc(O)c12`: the IC50 in the experiment with PC-3 is ≥ 40 µM.
On the same count and under the same terms, to `Cc1c(C(=O)N/N=C\c2ccco2)oc2cccc(O)c12` belongs ≥ 40 µM.
For `Cc1c(C(=O)N/N=C\c2cccc(Br)c2O)oc2cccc(O)c12`, the half-inhibitory concentration (IC50) in the experiment on PC-3 came to 16.6 µM; in the experiment on MGC-803, 14.2 µM.
Take `COc1ccccc1/C=N\NC(=O)c1oc2cccc(O)c2c1C`: the half-maximal inhibitory concentration (IC50) in the experiment with PC-3 stood at 32.7 µM.
For the compound `Cc1c(C(=O)N/N=C\c2ccccc2C(F)(F)F)oc2cccc(O)c12`, in the experiment on PC-3, the IC50 worked out at 26.2 µM.
Consider `Cc1c(C(=O)N/N=C\c2ccc(O)cc2)oc2cccc(O)c12`, for which the IC50 with PC-3 came to 21.7 µM.
Same read-out and setting: to `Cc1c(C(=O)N/N=C\c2ccncc2)oc2cccc(O)c12` belongs ≥ 40 µM.
In the case of `Cc1c(C(=O)N/N=C\c2ccccc2O)oc2cccc(O)c12`, the IC50 in the experiment on PC-3 came to 8.35 µM; in the experiment on MGC-803, 10.6 µM.
As to `Cc1c(C(=O)N/N=C\c2ccc(F)cc2)oc2cccc(O)c12`, the IC50 in the experiment with PC-3 was ≥ 40 µM.
Turning to `Cc1c(C(=O)N/N=C\c2cccnc2)oc2cccc(O)c12`, the 50% inhibitory concentration (IC50) with PC-3 was ≥ 40 µM.
`Cc1c(C(=O)N/N=C\c2c(O)cccc2Cl)oc2cccc(O)c12`: in the experiment with PC-3, the IC50 was found to be 18.7 µM.
`Cc1c(C(=O)N/N=C\c2cc(F)ccc2O)oc2cccc(O)c12`: the results for the IC50 in the experiment with PC-3 and in the experiment on MGC-803 were 3.17 µM and 5.23 µM, respectively.
For `Cc1c(C(=O)N/N=C\c2ccc(O)cc2O)oc2cccc(O)c12`, the half-maximal inhibitory concentration (IC50) amounted to 14.8 µM in the experiment with PC-3; 7.33 µM with MGC-803; 9.77 µM in the experiment on PANC-1; 4.39 µM in the experiment with U-87 MG; 2.88 µM in the experiment on HT-29; 2.08 µM in the experiment with MCF7.
Consider `Cc1c(C(=O)N/N=C\c2ccc(C(F)(F)F)cc2)oc2cccc(O)c12`, for which the IC50 in the experiment with PC-3 is ≥ 40 µM.
With `Cc1c(C(=O)N/N=C\c2cc(Cl)cc(Cl)c2O)oc2cccc(O)c12`, the figures for the IC50 in the experiment with PC-3 and in the experiment on MGC-803 were 9.59 µM and 4.36 µM, respectively.
In the case of `Cc1c(C(=O)N/N=C\c2ccccc2)oc2cccc(O)c12`, the IC50 in the experiment on PC-3 was found to be 29.2 µM.
For `Cc1c(C(=O)N/N=C\c2cccc(F)c2O)oc2cccc(O)c12`, the values for the half-inhibitory concentration (IC50) in the experiment on PC-3 and in the experiment with MGC-803 were 12.7 µM and 8.35 µM, respectively.
The like results for `Cc1c(C(=O)N/N=C\c2cccc(O)c2O)oc2cccc(O)c12` were, in that order, 12.2 µM and 5.03 µM.
Regarding `Cc1c(C(=O)N/N=C\c2c(O)cccc2F)oc2cccc(O)c12`, the half-inhibitory concentration (IC50) with PC-3 is 8.05 µM; in the experiment on MGC-803 it was 10.8 µM; in the experiment with PANC-1 it was 8.23 µM; in the experiment on U-87 MG, 9.27 µM; with HT-29, 2.2 µM; with MCF7 it was 1.75 µM.
Turning to `Cc1c(C(=O)N/N=C\c2cccc(O)c2)oc2cccc(O)c12`, in the experiment with PC-3, the IC50 was 17.6 µM.
As to `Cc1c(C(=O)N/N=C\c2ccc(Br)cc2O)oc2cccc(O)c12`, the figures for the IC50 in the experiment with PC-3 and in the experiment with MGC-803 were 2.05 µM and 5.46 µM, respectively.
Take `COc1cccc(/C=N\NC(=O)c2oc3cccc(O)c3c2C)c1`: the concentration for half-maximal inhibition (IC50) in the experiment with PC-3 was ≥ 40 µM.
On the same count and under the same terms, to `Cc1c(C(=O)N/N=C\c2ccccn2)oc2cccc(O)c12` belongs ≥ 40 µM; to `Cc1c(C(=O)N/N=C\c2ccccc2F)oc2cccc(O)c12`, ≥ 40 µM.
On the same count and under the same terms, then `Cc1c(C(=O)N/N=C\c2cc([N+](=O)[O-])ccc2O)oc2cccc(O)c12`, with 17.1 µM.
On the same count and under the same terms, then `Cc1c(C(=O)N/N=C\c2cc(O)ccc2O)oc2cccc(O)c12`, with 95.5 µM.
In the case of `Cc1c(C(=O)N/N=C\c2ccc(O)c(O)c2O)oc2cccc(O)c12`, the IC50 in the experiment on PC-3 is ≥ 40 µM; in the experiment with MGC-803 it was 18.1 µM; with PANC-1 it was > 20 µM; in the experiment with U-87 MG it was 5.96 µM; in the experiment with HT-29, > 20 µM; in the experiment with MCF7, 17.1 µM.

One may read the IC50 as the concentration that gives 50% inhibition.
